Measured values published in PubChem BioAssay AID1259407 (Chemical Carcinogenesis Research Information System (CCRIS), 2018).
The source made the active and inactive calls. How the calls were made is not given here.

System: CCRIS mutagenicity, Ames/micronucleus/aberration tests
Experiment: CCRIS mutagenicity studies
[1] = Test System: AMES SALMONELLA TYPHIMURIUM, Strain/Indicator: TA100, Metabolic Activation: NONE, Method: STANDARD PLATE

Which results are given for `O=CCCCC=O`?
mutagenic call (End Point: IN VITRO CHROMOSOMAL ABERRATIONS, Test System: CHL CELLS, Metabolic Activation: RAT, LIVER, S-9, SODIUM PHENOBARBITAL AND 5,6-BENZOFLAVONE): active; positive (structural and ploidy changes); mutagenic call (End Point: IN VITRO CHROMOSOMAL ABERRATIONS, Test System: SYRIAN HAMSTER EMBRYO (SHE) CELLS, Metabolic Activation: NONE): inactive; negative; mutagenic call (End Point: IN VITRO CHROMOSOMAL ABERRATIONS, Test System: SYRIAN HAMSTER EMBRYO (SHE) CELLS, Metabolic Activation: RAT, LIVER, S-9): inactive; negative; mutagenic call (End Point: In vitro micronucleus, Test System: Chinese hamster V79 cells, Metabolic Activation: None): active; positive (concentrations of 10 um and above strongly inhibited growth of cells,; mutagenic call (End Point: In vitro micronucleus, Test System: Chinese hamster V79 cells, Metabolic Activation: None, Method: FISH): inactive; positive (majority were centromer negative. authors attribute results as showing; mutagenic call (Test System: AMES SALMONELLA TYPHIMURIUM, Strain/Indicator: TA97A, Metabolic Activation: NONE, Method: STANDARD PLATE): inactive; negative; mutagenic call (Test System: AMES SALMONELLA TYPHIMURIUM, Strain/Indicator: TA98, Metabolic Activation: HAMSTER LIVER S-9, AROCLOR-1254 (10%), Method: PREINCUBATION): inactive; negative; mutagenic call (Test System: AMES SALMONELLA TYPHIMURIUM, Strain/Indicator: TA98, Metabolic Activation: NONE, Method: STANDARD PLATE): inactive; negative; mutagenic call (Test System: AMES SALMONELLA TYPHIMURIUM, Strain/Indicator: TA98, Metabolic Activation: RAT LIVER S-9, AROCLOR-1254 (10%), Method: PREINCUBATION): inactive; negative; mutagenic call (Test System: AMES SALMONELLA TYPHIMURIUM, Strain/Indicator: TA98, Metabolic Activation: RAT LIVER S-9, PHENOBARBITAL AND BETA-NAPHTHOFLAVONE, Method: PREINCUBATION): inactive; negative; mutagenic call (Test System: AMES SALMONELLA TYPHIMURIUM, Strain/Indicator: TA100, Metabolic Activation: HAMSTER LIVER S-9, AROCLOR-1254 (10%), Method: PREINCUBATION): inactive; negative; mutagenic call (Test System: AMES SALMONELLA TYPHIMURIUM, Strain/Indicator: TA100, Metabolic Activation: MOUSE LIVER S-9, AROCLOR 1254, Method: PREINCUBATION): active; positive; mutagenic call [1]: inactive; negative; mutagenic call (Test System: AMES SALMONELLA TYPHIMURIUM, Strain/Indicator: TA100, Metabolic Activation: RAT LIVER S-9, AROCLOR 1254, Method: PREINCUBATION): active; positive; mutagenic call (Test System: AMES SALMONELLA TYPHIMURIUM, Strain/Indicator: TA100, Metabolic Activation: RAT LIVER S-9, PHENOBARBITAL AND BETA-NAPHTHOFLAVONE NONE, Method: PREINCUBATION): inactive; negative; mutagenic call (Test System: AMES SALMONELLA TYPHIMURIUM, Strain/Indicator: TA102, Metabolic Activation: MOUSE LIVER S-9, AROCLOR 1254, Method: PREINCUBATION): active; positive; mutagenic call (Test System: AMES SALMONELLA TYPHIMURIUM, Strain/Indicator: TA102, Metabolic Activation: MOUSE LIVER S-9, AROCLOR-1254 (10%), Method: PREINCUBATION): active; positive; mutagenic call (Test System: AMES SALMONELLA TYPHIMURIUM, Strain/Indicator: TA102, Metabolic Activation: NONE, Method: PREINCUBATION): active; positive; mutagenic call (Test System: AMES SALMONELLA TYPHIMURIUM, Strain/Indicator: TA102, Metabolic Activation: RAT LIVER S-9, AROCLOR 1254, Method: PREINCUBATION): active; positive; mutagenic call (Test System: AMES SALMONELLA TYPHIMURIUM, Strain/Indicator: TA102, Metabolic Activation: RAT LIVER S-9, AROCLOR-1254 (10%), Method: PREINCUBATION): active; positive; mutagenic call (Test System: AMES SALMONELLA TYPHIMURIUM, Strain/Indicator: TA104, Metabolic Activation: MOUSE LIVER S-9, AROCLOR 1254, Method: PREINCUBATION): active; positive; mutagenic call (Test System: AMES SALMONELLA TYPHIMURIUM, Strain/Indicator: TA104, Metabolic Activation: MOUSE LIVER S-9, AROCLOR-1254 (10%), Method: PREINCUBATION): active; positive; mutagenic call (Test System: AMES SALMONELLA TYPHIMURIUM, Strain/Indicator: TA104, Metabolic Activation: NONE, Method: PREINCUBATION): active; positive; mutagenic call (Test System: AMES SALMONELLA TYPHIMURIUM, Strain/Indicator: TA104, Metabolic Activation: NONE, Method: STANDARD PLATE): inactive; negative; mutagenic call (Test System: AMES SALMONELLA TYPHIMURIUM, Strain/Indicator: TA104, Metabolic Activation: RAT LIVER S-9, AROCLOR 1254, Method: PREINCUBATION): active; positive; mutagenic call (Test System: AMES SALMONELLA TYPHIMURIUM, Strain/Indicator: TA104, Metabolic Activation: RAT LIVER S-9, AROCLOR-1254 (10%), Method: PREINCUBATION): active; positive; mutagenic call (Test System: AMES SALMONELLA TYPHIMURIUM, Strain/Indicator: TA1535, Metabolic Activation: HAMSTER LIVER S-9, AROCLOR-1254 (10%), Method: PREINCUBATION): inactive; negative; mutagenic call (Test System: AMES SALMONELLA TYPHIMURIUM, Strain/Indicator: TA1535, Metabolic Activation: NONE, Method: PREINCUBATION): inactive; negative; mutagenic call (Test System: AMES SALMONELLA TYPHIMURIUM, Strain/Indicator: TA1535, Metabolic Activation: RAT LIVER S-9, AROCLOR-1254 (10%), Method: PREINCUBATION): inactive; negative; mutagenic call (Test System: AMES SALMONELLA TYPHIMURIUM, Strain/Indicator: TA1535, Metabolic Activation: RAT LIVER S-9, PHENOBARBITAL AND BETA-NAPHTHOFLAVONE NONE, Method: PREINCUBATION): inactive; negative; mutagenic call (Test System: AMES SALMONELLA TYPHIMURIUM, Strain/Indicator: TA1537, Metabolic Activation: HAMSTER LIVER S-9, AROCLOR-1254 (10%), Method: PREINCUBATION): inactive; negative; mutagenic call (Test System: AMES SALMONELLA TYPHIMURIUM, Strain/Indicator: TA1537, Metabolic Activation: NONE, Method: PREINCUBATION): inactive; negative; mutagenic call (Test System: AMES SALMONELLA TYPHIMURIUM, Strain/Indicator: TA1537, Metabolic Activation: RAT LIVER S-9, AROCLOR-1254 (10%), Method: PREINCUBATION): inactive; negative; mutagenic call (Test System: AMES SALMONELLA TYPHIMURIUM, Strain/Indicator: TA1537, Metabolic Activation: RAT LIVER S-9, PHENOBARBITAL AND BETA-NAPHTHOFLAVONE NONE, Method: PREINCUBATION): inactive; negative; mutagenic call (Test System: AMES SALMONELLA TYPHIMURIUM, Strain/Indicator: TA2638, Metabolic Activation: NONE, Method: STANDARD PLATE): active; positive; mutagenic call (Test System: AMES SALMONELLA TYPHIMURIUM, Strain/Indicator: TA2638A, Metabolic Activation: NONE, Method: STANDARD PLATE): active; positive; mutagenic call (Test System: E. COLI, Strain/Indicator: WP2 UVRA (PKM101), Metabolic Activation: NONE, Method: STANDARD PLATE): active; positive; mutagenic call (Test System: E. COLI, Strain/Indicator: WP2UVRA, Metabolic Activation: NONE, Method: PREINCUBATION): inactive; negative; mutagenic call (Test System: E. COLI, Strain/Indicator: WP2UVRA, Metabolic Activation: RAT LIVER S-9, PHENOBARBITAL AND BETA-NAPHTHOFLAVONE, Method: PREINCUBATION): inactive; negative; mutagenic call (Test System: MOUSE LYMPHOMA, Strain/Indicator: L5178Y (TRIFLUOROTHYMIDINE), Metabolic Activation: NONE, Method: SUSPENSION/PLATE): active; positive; mutagenic call (Test System: UDS RODENT HEPATOCYTES, Strain/Indicator: THY INCORP (NON-S-PHASE), Metabolic Activation: NONE, Method: AUTORADIOGRAPHY): active; positive

For `NC(=O)OC[C@@H]1[C@H](NC(=O)/C(=N\OCC(=O)O)c2csc(N)n2)C(=O)N1S(=O)(=O)O`, which mutagenic call (Test System: AMES SALMONELLA TYPHIMURIUM, Strain/Indicator: TA98, Metabolic Activation: NONE) is on record?
The mutagenic call was “inactive; negative”.

What about the mutagenic call (Test System: AMES SALMONELLA TYPHIMURIUM, Strain/Indicator: TA98, Metabolic Activation: S-9) of the same compound?
The mutagenic call was “inactive; negative”.

What about the mutagenic call (Test System: AMES SALMONELLA TYPHIMURIUM, Strain/Indicator: TA100, Metabolic Activation: NONE) of the same compound?
Its mutagenic call is “inactive; negative”.

And the mutagenic call (Test System: AMES SALMONELLA TYPHIMURIUM, Strain/Indicator: TA100, Metabolic Activation: S-9)?
The mutagenic call was “inactive; negative”.

What about the mutagenic call (Test System: AMES SALMONELLA TYPHIMURIUM, Strain/Indicator: TA1537, Metabolic Activation: NONE) of the same compound?
The mutagenic call was “inactive; negative”.

And the mutagenic call (Test System: AMES SALMONELLA TYPHIMURIUM, Strain/Indicator: TA1537, Metabolic Activation: S-9)?
Its mutagenic call is “inactive; negative”.

What about the mutagenic call (Test System: E. COLI, Strain/Indicator: WP2 (HCR), Metabolic Activation: NONE) of the same compound?
Its mutagenic call is “inactive; negative”.

What about the mutagenic call (Test System: E. COLI, Strain/Indicator: WP2 (HCR), Metabolic Activation: S-9) of the same compound?
Its mutagenic call is “inactive; negative”.

How did the mutagenic call [1] turn out when `Nc1nc(Cl)c2[nH]cnc2n1` was run?
Its mutagenic call is “active; positive”.

With `Cn1c(N)nc2c3cnccc3ccc21` as the compound, how does the mutagenic call (Test System: AMES SALMONELLA TYPHIMURIUM, Strain/Indicator: TA98, Metabolic Activation: RAT, LIVER, S-9, AROCLOR 1254, Method: STANDARD PLATE) read?
The mutagenic call was “active; positive”.
